Data from patent US11274268B2, “Detergent compositions for removing heavy metals and formaldehyde” (FNG RESEARCH CO., LTD., priority 2017, dated 2022).

Assays:
human skin = test: Skin irritation test of active ingredient (patch method, CTFA guidelines); format: in vivo; settings: for Test result (number of subject) (+) / Test result (number of subject) (−) / Test result (number of subject) (++) / Test result (number of subject) (±): 20 subjects, 24 hours patch; for Test result (number of subject) (+): apparent reddening; for Test result (number of subject) (−): no erythema or symptoms; for Test result (number of subject) (++): reddened and swollen; for Test result (number of subject) (±): slightly reddish; for Degree of irritation: Equation 1
Procedure: A total of 20 people (10 men and 10 women in their 20s and 30s) were tested for skin irritation using the patch method according to the guidelines of CTFA (The Cosmetic, Toiletry & Fragrance Association, Inc. Washington, D.C.).
A filter paper disk was placed in an 8 mm diameter, 10 panels of pin chamber.
After 24 hours, the pin chamber was removed, and skin conditions were visually observed. The degree and grade for skin irritation were calculated according to the following Equation 1, and the results are shown in Table 3 below.
[Criteria for Skin Irritation]
(−): No erythema or particularly no symptoms; (±): slightly reddish than the periphery; (+): Apparent reddening than periphery; (++): More reddened and swollen than periphery.
[Grade for Skin Irritation]
Degree of irritation 0-0.1: Grade I (unstimulated);
Degree of irritation 0.11-0.3: Grade II (weakly stimulated);
Degree of irritation 0.31-0.5: Grade III (moderately stimulated);
Degree of irritation 0.51 or more: Grade IV (strongly stimulated)

[1] = Formaldehyde removing ability test (GC); settings: 2.0% formaldehyde solution, 3 molar equivalents, room temperature

| SMILES | Grade (human skin; content 0.1%) | Test result (number of subject) (+) (human skin; content 0.1%) | Test result (number of subject) (−) (human skin; content 0.1%) | Test result (number of subject) (++) (human skin; content 0.1%) | Test result (number of subject) (±) (human skin; content 0.1%) | Degree of irritation (human skin; content 0.1%) | Grade (human skin; content 0.5%) | Test result (number of subject) (+) (human skin; content 0.5%) | Test result (number of subject) (−) (human skin; content 0.5%) | Test result (number of subject) (++) (human skin; content 0.5%) | Test result (number of subject) (±) (human skin; content 0.5%) | Degree of irritation (human skin; content 0.5%) | Grade (human skin; content 1.0%) | Test result (number of subject) (+) (human skin; content 1.0%) | Test result (number of subject) (−) (human skin; content 1.0%) | Test result (number of subject) (++) (human skin; content 1.0%) | Test result (number of subject) (±) (human skin; content 1.0%) | Degree of irritation (human skin; content 1.0%) | Area (formaldehyde, GC) ([1]; 30 min) | Area (formaldehyde, GC) ([1]; 180 min) | also measured |
| --- | --- | --- | --- | --- | --- | --- | --- | --- | --- | --- | --- | --- | --- | --- | --- | --- | --- | --- | --- | --- | --- |
| NCCNCCNCCN [Trientine, Triethylenetetramine, reference compound] | I (Degree of irritation 0-0.1: Grade I (unstimulated)) | 0 | 20 | 0 | 0 | 0 | I (Degree of irritation 0-0.1: Grade I (unstimulated)) | 0 | 19 | 0 | 1 | 0.05 | II (Degree of irritation 0.11-0.3: Grade II (weakly stimulated)) | 0 | 17 | 0 | 3 | 0.15 | 0.168 mAU * min | 0 mAU * min | Area (formaldehyde, GC) ([1]; Initial): 0.305 mAU * min |
| O=C(O)c1ccc(N2CCCN(c3ccc(C(=O)O)cc3)CCN(c3ccc(C(=O)O)cc3)CCCN(c3ccc(C(=O)O)cc3)CC2)cc1 [Embodiment 10, 4,4′,4″,4′-(1,4,8,11-tetraazacyclotetradecane-1,4,8,11-tetrayl)tetrabenzoic Acid] | I (Degree of irritation 0-0.1: Grade I (unstimulated)) | 0 | 20 | 0 | 0 | 0 | I (Degree of irritation 0-0.1: Grade I (unstimulated)) | 0 | 20 | 0 | 0 | 0 | I (Degree of irritation 0-0.1: Grade I (unstimulated)) | 0 | 19 | 0 | 1 | 0.05 | 0.171 mAU * min | 0 mAU * min | Area (formaldehyde, GC) ([1]; Initial): 0.305 mAU * min |
| O=C(O)c1ccc(N2CCN(c3ccc(C(=O)O)cc3)CCN(c3ccc(C(=O)O)cc3)CCN(c3ccc(C(=O)O)cc3)CC2)cc1 [Embodiment 6, 4,4′,4″,4′″-(1,4,7,10-tetraazacyclododecane-1,4,7,10-tetrayl)tetrabenzoic Acid] | I (Degree of irritation 0-0.1: Grade I (unstimulated)) | 0 | 20 | 0 | 0 | 0 | I (Degree of irritation 0-0.1: Grade I (unstimulated)) | 0 | 20 | 0 | 0 | 0 | I (Degree of irritation 0-0.1: Grade I (unstimulated)) | 0 | 19 | 0 | 1 | 0.05 | 0.183 mAU * min | 0 mAU * min | Area (formaldehyde, GC) ([1]; Initial): 0.305 mAU * min |
| O=C(O)c1cncc(N2CCN(c3cncc(C(=O)O)c3)CCN(c3cncc(C(=O)O)c3)CCN(c3cncc(C(=O)O)c3)CC2)c1 [Embodiment 7, 5,5′,5″,5′″-(1,4,7,10-tetraazacyclododecane-1,4,7,10-tetrayl)tetranicotinic Acid] | I (Degree of irritation 0-0.1: Grade I (unstimulated)) | 0 | 20 | 0 | 0 | 0 | I (Degree of irritation 0-0.1: Grade I (unstimulated)) | 0 | 20 | 0 | 0 | 0 | I (Degree of irritation 0-0.1: Grade I (unstimulated)) | 0 | 20 | 0 | 0 | 0 | 0.181 mAU * min | 0 mAU * min | Area (formaldehyde, GC) ([1]; Initial): 0.305 mAU * min |
| O=C(O)CN1CCN(CC(=O)O)CCN(CC(=O)O)CCN(CC(=O)O)CC1 [Embodiment 5, 2,2′,2″,2′″-(1,4,7,10-tetraazacyclododecane-1,4,7,10-tetrayl)tetraacetic Acid] | I (Degree of irritation 0-0.1: Grade I (unstimulated)) | 0 | 20 | 0 | 0 | 0 | I (Degree of irritation 0-0.1: Grade I (unstimulated)) | 0 | 20 | 0 | 0 | 0 | I (Degree of irritation 0-0.1: Grade I (unstimulated)) | 0 | 19 | 0 | 1 | 0.05 | 0.179 mAU * min | 0 mAU * min | Area (formaldehyde, GC) ([1]; Initial): 0.305 mAU * min |
| O=C(O)CN1CCCN(CC(=O)O)CCN(CC(=O)O)CCCN(CC(=O)O)CC1 [Embodiment 9, 2,2′,2″,2′″-(1,4,8,11-tetraazacyclotetradecane-1,4,8,11-tetrayl)tetraacetic Acid] | I (Degree of irritation 0-0.1: Grade I (unstimulated)) | 0 | 20 | 0 | 0 | 0 | I (Degree of irritation 0-0.1: Grade I (unstimulated)) | 0 | 20 | 0 | 0 | 0 | I (Degree of irritation 0-0.1: Grade I (unstimulated)) | 0 | 18 | 0 | 2 | 0.10 | 0.182 mAU * min | 0 mAU * min | Area (formaldehyde, GC) ([1]; Initial): 0.305 mAU * min |
